The results in this text go back to patent publication US9233964B2, “Sulfamide piperazine derivatives as protein tyrosine kinase inhibitors and pharmaceutical use therof” (LEO PHARMA A/S, priority 2011, dated 2016).

Some results are limits rather than exact numbers.

The EC50 is the concentration that produces a half-maximal response.

Holding throughout (assay type): biochemical
The target in one test is T1, JAK2 (Homo sapiens, UniProt O60674).
T1 construct: All four purified enzymes contain only the catalytic domain; His (N); purchased Carna Biosciences, Inc; host or cells: baculovirus expression system
As to the kind of experiment: JAK kinase assay (HTRF, phosphorylation of synthetic peptide), JAK2. Conditions: catalytic domain, ATP at Km (4 μM); read-out: JAK2 kinase inhibitory activity (EC50). Summed up: (§1)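 Catalytic-domain human JAK1 (GST-tagged, aa 850-1154) or His-tagged JAK2, baculovirus-expressed, phosphorylated 1 µM biotinylated TK peptide at Km ATP (JAK1 7 µM, 10 mM MgCl2, 50 nM SEB; JAK2 4 µM, 5 mM MgCl2) in pH 7.0 Hepes, 20-30 min RT. EDTA stop; overnight streptavidin-XL665/cryptate HTRF read.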
Background: In TR-FRET formats the signal depends on donor and acceptor labels being close together.

The next test has as its target T2, JAK3 (Homo sapiens, UniProt P52333).
T2 construct: All four purified enzymes contain only the catalytic domain; His (N); purchased Carna Biosciences, Inc; host or cells: baculovirus expression system
The experiment in a line: JAK kinase assay (HTRF, phosphorylation of synthetic peptide), JAK3. To be noted: catalytic domain, ATP at Km (2 μM); read-out: JAK3 kinase inhibitory activity (EC50).

Another test concerns the target T3, TYK2 (Homo sapiens, UniProt P29597).
T3 construct: JAK1 (aa 850-1154) and TYK2 (aa 871-1187) are expressed with an N-terminally fused GST-tag; GST (N); purchased Carna Biosciences, Inc; host or cells: baculovirus expression system
T3 sequence (P29597 871-1187): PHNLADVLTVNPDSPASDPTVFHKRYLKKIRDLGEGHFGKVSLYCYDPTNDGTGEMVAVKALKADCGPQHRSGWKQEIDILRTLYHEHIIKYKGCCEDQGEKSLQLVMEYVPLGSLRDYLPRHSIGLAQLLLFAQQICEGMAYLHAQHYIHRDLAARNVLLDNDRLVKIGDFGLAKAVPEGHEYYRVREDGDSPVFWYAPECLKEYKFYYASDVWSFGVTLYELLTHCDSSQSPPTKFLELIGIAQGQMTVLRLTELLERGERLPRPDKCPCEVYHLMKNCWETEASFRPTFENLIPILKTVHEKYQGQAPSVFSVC
The experiment in a line: JAK kinase assay (HTRF, phosphorylation of synthetic peptide), TYK2. To be noted: catalytic domain, ATP at Km (13 μM); read-out: TYK2 kinase inhibitory activity (EC50). The procedure, abridged:
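1 µM biotinylated TK peptide at Km ATP in pH 7.0 Hepes, 20-30 min RT. EDTA stop; overnight streptavidin-XL665/cryptate HTRF read.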

In a further test the target is T4, JAK1 (Homo sapiens, UniProt P23458).
T4 construct: JAK1 (aa 850-1154) and TYK2 (aa 871-1187) are expressed with an N-terminally fused GST-tag; GST (N); purchased Carna Biosciences, Inc; host or cells: baculovirus expression system
As to the kind of experiment: JAK kinase assay (HTRF, phosphorylation of synthetic peptide), JAK1. Conditions: catalytic domain, ATP at Km (7 μM); read-out: JAK1 kinase inhibitory activity (EC50). The procedure, abridged: as §1

T2 sequence (P52333 822-1111 limits assumed): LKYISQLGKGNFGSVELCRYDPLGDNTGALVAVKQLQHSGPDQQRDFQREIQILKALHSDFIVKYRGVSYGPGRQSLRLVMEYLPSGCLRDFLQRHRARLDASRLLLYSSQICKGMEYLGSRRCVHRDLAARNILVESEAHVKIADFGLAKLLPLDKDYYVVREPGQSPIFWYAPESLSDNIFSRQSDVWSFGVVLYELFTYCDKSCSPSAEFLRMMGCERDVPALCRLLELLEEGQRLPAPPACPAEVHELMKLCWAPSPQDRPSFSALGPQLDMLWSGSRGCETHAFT
T1 sequence (O60674 849-1124 limits assumed): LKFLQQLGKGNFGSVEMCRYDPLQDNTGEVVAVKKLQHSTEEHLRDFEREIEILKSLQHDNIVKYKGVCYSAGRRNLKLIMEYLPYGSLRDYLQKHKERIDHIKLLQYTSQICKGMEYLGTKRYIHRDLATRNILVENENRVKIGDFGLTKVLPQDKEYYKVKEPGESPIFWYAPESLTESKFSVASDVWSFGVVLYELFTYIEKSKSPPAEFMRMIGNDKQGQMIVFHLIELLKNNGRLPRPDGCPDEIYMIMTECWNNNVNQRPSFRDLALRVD
T4 sequence (P23458 850-1154): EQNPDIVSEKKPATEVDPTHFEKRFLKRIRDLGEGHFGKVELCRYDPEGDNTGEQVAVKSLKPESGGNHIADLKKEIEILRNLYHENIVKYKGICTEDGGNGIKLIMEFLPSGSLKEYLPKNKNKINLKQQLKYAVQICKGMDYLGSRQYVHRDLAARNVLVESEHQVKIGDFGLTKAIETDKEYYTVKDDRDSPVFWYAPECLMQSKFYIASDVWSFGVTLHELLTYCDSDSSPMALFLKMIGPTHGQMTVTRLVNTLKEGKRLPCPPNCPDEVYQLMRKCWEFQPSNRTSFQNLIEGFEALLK

`O=S(=O)(N(CCO)CCO)N1CCN(c2ncnc3[nH]ccc23)CC12CC2` [Example 54, 7-(7H-Pyrrolo[2,3-d]pyrimidin-4-yl)-4,7-diaza-spiro[2.5]octane-4-sulfonic acid bis-(2-hydroxy-ethyl)-amide]: the half-maximal effective concentration (EC50) at JAK2 is under 100 nM; at JAK3, under 100 nM; on TYK2, 100 to 500 nM; on JAK1 it was under 100 nM.

`N#CCCCNS(=O)(=O)N1CCN(c2ncnc3[nH]ccc23)CC12CC2` [Example 55, 7-(7H-Pyrrolo[2,3-d]pyrimidin-4-yl)-4,7-diaza-spiro[2.5]octane-4-sulfonic acid (3-cyano-propyl)-amide]: the EC50 on JAK2 was under 100 nM; at JAK3, under 100 nM; on TYK2 it was 100 to 500 nM; on JAK1, under 100 nM.

`N#CCCCN(CCCC#N)S(=O)(=O)N1CCN(c2ncnc3[nH]ccc23)CC12CC2` [Example 56, 7-(7H-Pyrrolo[2,3-d]pyrimidin-4-yl)-4,7-diaza-spiro[2.5]octane-4-sulfonic acid bis-(3-cyano-propyl)-amide]: the EC50 is under 100 nM on JAK2, under 100 nM at JAK3, 100 to 500 nM at TYK2 and under 100 nM at JAK1.

`N#CCCCN(CCCc1ccccc1)S(=O)(=O)N1CCN(c2ncnc3[nH]ccc23)CC12CC2` [Example 57, 7-(7H-Pyrrolo[2,3-d]pyrimidin-4-yl)-4,7-diaza-spiro[2.5]octane-4-sulfonic acid (3-cyano-propyl)-(3-phenyl-propyl)-amide]: the EC50 was under 100 nM at JAK2, under 100 nM at JAK3, over 500 nM on TYK2 and under 100 nM on JAK1.

In the case of `CN(CCc1ccccc1)S(=O)(=O)N1CCN(c2ncnc3[nH]ccc23)CC12CC2` [Example 58, 7-(7H-Pyrrolo[2,3-d]pyrimidin-4-yl)-4,7-diaza-spiro[2.5]octane-4-sulfonic acid methyl-phenethyl-amide], the half-maximal effective concentration (EC50) on JAK2 is under 100 nM; on JAK3, under 100 nM; at TYK2 it was 100 to 500 nM; at JAK1, under 100 nM.

Take `CN(CC1CC1)S(=O)(=O)N1CCN(c2ncnc3[nH]ccc23)CC12CC2` [Example 59, N-(cyclopropylmethyl)-N-methyl-5-(7H-pyrrolo[2,3-d]pyrimidin-4-yl)-5,8-diazaspiro[2.5]octane-8-sulfonamide]: the concentration for a half-maximal effect (EC50) on JAK2, on JAK3, at TYK2 and at JAK1 was under 100 nM each time.

As to `CN(CC1CCC1)S(=O)(=O)N1CCN(c2ncnc3[nH]ccc23)CC12CC2` [Example 60, N-(cyclobutylmethyl)-N-methyl-5-(7H-pyrrolo[2,3-d]pyrimidin-4-yl)-5,8-diazaspiro[2.5]octane-8-sulfonamide], the EC50 on JAK2, at JAK3, on TYK2 and on JAK1 was under 100 nM in each case.

For `CN(C1CCCC1)S(=O)(=O)N1CCN(c2ncnc3[nH]ccc23)CC12CC2` [Example 61, N-cyclopentyl-N-methyl-5-(7H-pyrrolo[2,3-d]pyrimidin-4-yl)-5,8-diazaspiro[2.5]octane-8-sulfonamide], the EC50 was under 100 nM on JAK2, under 100 nM at JAK3, 100 to 500 nM on TYK2 and under 100 nM at JAK1.

Turning to `CN(CC1CCC(F)(F)CC1)S(=O)(=O)N1CCN(c2ncnc3[nH]ccc23)CC12CC2` [Example 62, N-[(4,4-difluorocyclohexyl)methyl]-N-methyl-5-(7H-pyrrolo[2,3-d]pyrimidin-4-yl)-5,8-diazaspiro[2.5]octane-8-sulfonamide], the EC50 at JAK2, at JAK3, on TYK2 and on JAK1 was under 100 nM throughout.

With `CC(CN(C)S(=O)(=O)N1CCN(c2ncnc3[nH]ccc23)CC12CC2)c1ccccc1` (centres unmarked) [Example 63, N-methyl-N-(2-phenylpropyl)-5-(7H-pyrrolo[2,3-d]pyrimidin-4-yl)-5,8-diazaspiro[2.5]octane-8-sulfonamide], the EC50 at JAK2 was under 100 nM; on JAK3, under 100 nM; at TYK2, 100 to 500 nM; at JAK1, under 100 nM.

For `CN(CC1CCCCO1)S(=O)(=O)N1CCN(c2ncnc3[nH]ccc23)CC12CC2` (centres unmarked) [Example 64, N-methyl-5-(7H-pyrrolo[2,3-d]pyrimidin-4-yl)-N-(tetrahydropyran-2-ylmethyl)-5,8-diazaspiro[2.5]octane-8-sulfonamide], the half-maximal effective concentration (EC50) is under 100 nM on JAK2, 100 to 500 nM at JAK3, 100 to 500 nM at TYK2 and under 100 nM on JAK1.

Turning to `CN(C)S(=O)(=O)c1ccc(CN(C)S(=O)(=O)N2CCN(c3ncnc4[nH]ccc34)CC23CC3)o1` [Example 65, N-[[5-(dimethylsulfamoyl)-2-furyl]methyl]-N-methyl-5-(7H-pyrrolo[2,3-d]pyrimidin-4-yl)-5,8-diazaspiro[2.5]octane-8-sulfonamide], the EC50 was under 100 nM at JAK2, 100 to 500 nM at JAK3, 100 to 500 nM on TYK2 and under 100 nM at JAK1.

Turning to `CN(CCn1cccn1)S(=O)(=O)N1CCN(c2ncnc3[nH]ccc23)CC12CC2` [Example 66, N-methyl-N-(2-pyrazol-1-ylethyl)-5-(7H-pyrrolo[2,3-d]pyrimidin-4-yl)-5,8-diazaspiro[2.5]octane-8-sulfonamide], the EC50 at JAK2 was under 100 nM; at JAK3 it was under 100 nM; at TYK2, 100 to 500 nM; on JAK1 it was under 100 nM.

`Cc1cc(CN(C)S(=O)(=O)N2CCN(c3ncnc4[nH]ccc34)CC23CC3)on1` [Example 67, N-methyl-N-[(3-methylisoxazol-5-yl)methyl]-5-(7H-pyrrolo[2,3-d]pyrimidin-4-yl)-5,8-diazaspiro[2.5]octane-8-sulfonamide]: the concentration giving a half-maximal response (EC50) was under 100 nM at JAK2, under 100 nM on JAK3, 100 to 500 nM at TYK2 and under 100 nM at JAK1.

Take `CN(Cc1ccno1)S(=O)(=O)N1CCN(c2ncnc3[nH]ccc23)CC12CC2` [Example 68, N-(isoxazol-5-ylmethyl)-N-methyl-5-(7H-pyrrolo[2,3-d]pyrimidin-4-yl)-5,8-diazaspiro[2.5]octane-8-sulfonamide]: the EC50 on JAK2 was under 100 nM; on JAK3, under 100 nM; at TYK2 it was 100 to 500 nM; on JAK1, under 100 nM.

With `CN(CCOc1ccc(Cl)cc1)S(=O)(=O)N1CCN(c2ncnc3[nH]ccc23)CC12CC2` [Example 69, N-[2-(4-chlorophenoxy)ethyl]-N-methyl-5-(7H-pyrrolo[2,3-d]pyrimidin-4-yl)-5,8-diazaspiro[2.5]octane-8-sulfonamide], the EC50 was under 100 nM on JAK2, 100 to 500 nM on JAK3, over 500 nM at TYK2 and under 100 nM at JAK1.

In the case of `CN(CCOc1ccccc1C#N)S(=O)(=O)N1CCN(c2ncnc3[nH]ccc23)CC12CC2` [Example 70, N-[2-(2-cyanophenoxy)ethyl]-N-methyl-5-(7H-pyrrolo[2,3-d]pyrimidin-4-yl)-5,8-diazaspiro[2.5]octane-8-sulfonamide], the EC50 at JAK2 was under 100 nM; on JAK3, 100 to 500 nM; on TYK2 it was over 500 nM; on JAK1, under 100 nM.

With `CN(CCOc1cccc(C#N)c1)S(=O)(=O)N1CCN(c2ncnc3[nH]ccc23)CC12CC2` [Example 71, N-[2-(3-cyanophenoxy)ethyl]-N-methyl-5-(7H-pyrrolo[2,3-d]pyrimidin-4-yl)-5,8-diazaspiro[2.5]octane-8-sulfonamide], the EC50 on JAK2 was under 100 nM; at JAK3, 100 to 500 nM; at TYK2 it was over 500 nM; at JAK1, under 100 nM.

As to `CN(CCOc1ccc(C#N)cc1)S(=O)(=O)N1CCN(c2ncnc3[nH]ccc23)CC12CC2` [Example 72, N-[2-(4-cyanophenoxy)ethyl]-N-methyl-5-(7H-pyrrolo[2,3-d]pyrimidin-4-yl)-5,8-diazaspiro[2.5]octane-8-sulfonamide], the half-maximal effective concentration (EC50) on JAK2 was under 100 nM; on JAK3, 100 to 500 nM; on TYK2, over 500 nM; at JAK1, under 100 nM.

For the compound `CN(CC1CCCC1)S(=O)(=O)N1CCN(c2ncnc3[nH]ccc23)CC12CC2` [Example 73, N-(cyclopentylmethyl)-N-methyl-5-(7H-pyrrolo[2,3-d]pyrimidin-4-yl)-5,8-diazaspiro[2.5]octane-8-sulfonamide], the EC50 at JAK2, at JAK3, on TYK2 and at JAK1 was under 100 nM in each case.
